Drawing on US20110294778A1, “HEPATITIS C INHIBITOR COMPOUNDS” (priority 2009, published 2011), this text covers EC50 for 13 compounds.

In assay [1] the test system is HCV genotype 1b (Con-1) subgenomic replicon with NS3 resistance mutation D168V in Huh-7 cells. Description: HCV replicon RNA replication assay (NS3 protease variants), genotype 1b D168V. It is filed as cell-based. Particulars: Hepatitis C virus, Huh-7, 72 h, read-out: D168V 1b EC50 (nM).
Assay [2] relates to HCV genotype 1a (strain H77) subgenomic replicon with NS3 resistance mutation R155K in Huh-7 cells. Description: HCV replicon RNA replication assay (NS3 protease variants), genotype 1a R155K. The conditions noted are these: Hepatitis C virus, Huh-7, 72 h, read-out: R155K 1a EC50 (nM). It is filed as cell-based.

Take `COc1ccc2c(O[C@@H]3C[C@H]4C(=O)N[C@]5(C(=O)NS(=O)(=O)C6(C)CC6)C[C@H]5/C=C\CCCCC[C@H](NC(=O)N5CC(OC)C5)C(=O)N4C3)cc(OC(C)C)nc2c1C` [Compound 2003, (2R,6S,12Z,13aS,14aR,16aS)-6-{[(3-methoxyazetidin-1-yl)carbonyl]amino}-2-{[7-methoxy-8-methyl-2-(propan-2-yloxy)quinolin-4-yl]oxy}-N-[(1-methylcyclopropyl)sulfonyl]-5,16-dioxo-1,2,3,6,7,8,9,10,11,13a,14,15,16,16a-tetradecahydrocyclopropa[e]pyrrolo[1,2-a][1,4]diazacyclopentadecine-14a(5H)-carboxamide]: the EC50 in assay [1] was 0.47 nM; in assay [2], 9.1 nM.
The matching figures for `COc1ccc2c(O[C@@H]3C[C@H]4C(=O)N[C@]5(C(=O)NS(=O)(=O)C6(C)CC6)C[C@H]5/C=C\CCCCC[C@H](NC(=O)N5CCC(F)(F)C5)C(=O)N4C3)cc(OC(C)C)nc2c1C` [Compound 2004, (2R,6S,12Z,13aS,14aR,16aS)-6-{[(3,3-difluoropyrrolidin-1-yl)carbonyl]amino}-2-{[7-methoxy-8-methyl-2-(propan-2-yloxy)quinolin-4-yl]oxy}-N-[(1-methylcyclopropyl)sulfonyl]-5,16-dioxo-1,2,3,6,7,8,9,10,11,13a,14,15,16,16a-tetradecahydrocyclopropa[e]pyrrolo[1,2-a][1,4]diazacyclopentadecine-14a(5H)-carboxamide]: 1.6 nM and 8.2 nM.
With `COc1ccc2c(O[C@@H]3C[C@H]4C(=O)N[C@]5(C(=O)NS(=O)(=O)C6CC6)C[C@H]5/C=C\CCCCC[C@H](NC(=O)N5CCC5)C(=O)N4C3)cc(OC(C)C)nc2c1C` [Compound 2005, (2R,6S,12Z,13aS,14aR,16aS)-6-[(azetidin-1-ylcarbonyl)amino]-N-(cyclopropylsulfonyl)-2-{[7-methoxy-8-methyl-2-(propan-2-yloxy)quinolin-4-yl]oxy}-5,16-dioxo-1,2,3,6,7,8,9,10,11,13a,14,15,16,16a-tetradecahydrocyclopropa[e]pyrrolo[1,2-a][1,4]diazacyclopentadecine-14a(5H)-carboxamide], the EC50 in assay [1] was found to be 0.82 nM; in assay [2], 4.8 nM.
Take `CCOc1cc(O[C@@H]2C[C@H]3C(=O)N[C@]4(C(=O)NS(=O)(=O)C5(C)CC5)C[C@H]4/C=C\CCCCC[C@H](NC(=O)N(C)C)C(=O)N3C2)c2ccc(OC)c(C)c2n1` [Compound 2006, (2R,6S,12Z,13aS,14aR,16aS)-6-[(dimethylcarbamoyl)amino]-2-[(2-ethoxy-7-methoxy-8-methylquinolin-4-yl)oxy]-N-[(1-methylcyclopropyl)sulfonyl]-5,16-dioxo-1,2,3,6,7,8,9,10,11,13a,14,15,16,16a-tetradecahydrocyclopropa[e]pyrrolo[1,2-a][1,4]diazacyclopentadecine-14a(5H)-carboxamide]: the EC50 was 2.1 nM in assay [1] and 9.9 nM in assay [2].
In the case of `COc1ccc2c(O[C@@H]3C[C@H]4C(=O)N[C@]5(C(=O)NS(=O)(=O)C6CC6)C[C@H]5/C=C\CCCCC[C@H](NC(=O)N5CC(F)C5)C(=O)N4C3)cc(OC(C)C)nc2c1C` [Compound 2007, (2R,6S,12Z,13aS,14aR,16aS)-N-(cyclopropylsulfonyl)-6-{[(3-fluoroazetidin-1-yl)carbonyl]amino}-2-{[7-methoxy-8-methyl-2-(propan-2-yloxy)quinolin-4-yl]oxy}-5,16-dioxo-1,2,3,6,7,8,9,10,11,13a,14,15,16,16a-tetradecahydrocyclopropa[e]pyrrolo[1,2-a][1,4]diazacyclopentadecine-14a(5H)-carboxamide], the values for the EC50 in assay [1] and in assay [2] were 0.71 nM and 9 nM, respectively.
Regarding `COc1ccc2c(O[C@@H]3C[C@H]4C(=O)N[C@]5(C(=O)NS(=O)(=O)C6(C)CC6)C[C@H]5/C=C\CCCCC[C@H](NC(=O)N(C)C)C(=O)N4C3)cc(OC(C)C)nc2c1C` [Compound 2008, (2R,6S,12Z,13aS,14aR,16aS)-6-[(dimethylcarbamoyl)amino]-2-{[7-methoxy-8-methyl-2-(propan-2-yloxy)quinolin-4-yl]oxy}-N-[(1-methylcyclopropyl)sulfonyl]-5,16-dioxo-1,2,3,6,7,8,9,10,11,13a,14,15,16,16a-tetradecahydrocyclopropa[e]pyrrolo[1,2-a][1,4]diazacyclopentadecine-14a(5H)-carboxamide], the EC50 in assay [1] is 1.5 nM; in assay [2], 6.7 nM.
Consider `COc1ccc2c(O[C@@H]3C[C@H]4C(=O)N[C@]5(C(=O)NS(=O)(=O)C6(C)CC6)C[C@H]5/C=C\CCCCC[C@H](NC(=O)N5CC(C)(OC)C5)C(=O)N4C3)cc(OC(C)C)nc2c1C` [Compound 2009, (2R,6S,12Z,13aS,14aR,16aS)-6-{[(3-methoxy-3-methylazetidin-1-yl)carbonyl]amino}-2-{[7-methoxy-8-methyl-2-(propan-2-yloxy)quinolin-4-yl]oxy}-N-[(1-methylcyclopropyl)sulfonyl]-5,16-dioxo-1,2,3,6,7,8,9,10,11,13a,14,15,16,16a-tetradecahydrocyclopropa[e]pyrrolo[1,2-a][1,4]diazacyclopentadecine-14a(5H)-carboxamide], for which the EC50 in assay [1] amounted to 2.9 nM; in assay [2], 6.8 nM.
The matching figures for `COc1ccc2c(O[C@@H]3C[C@H]4C(=O)N[C@]5(C(=O)NS(=O)(=O)C6(C)CC6)C[C@H]5/C=C\CCCCC[C@H](NC(=O)N5CCC5)C(=O)N4C3)cc(OC3CC3)nc2c1C` [Compound 2010, (2R,6S,12Z,13aS,14aR,16aS)-6-[(azetidin-1-ylcarbonyl)amino]-2-{[2-(cyclopropyloxy)-7-methoxy-8-methylquinolin-4-yl]oxy}-N-[(1-methylcyclopropyl)sulfonyl]-5,16-dioxo-1,2,3,6,7,8,9,10,11,13a,14,15,16,16a-tetradecahydrocyclopropa[e]pyrrolo[1,2-a][1,4]diazacyclopentadecine-14a(5H)-carboxamide]: 0.66 nM and 6.4 nM.
For `COc1ccc2c(O[C@@H]3C[C@H]4C(=O)N[C@]5(C(=O)NS(=O)(=O)C6CC6)C[C@H]5/C=C\CCCCC[C@H](NC(=O)N5CC(C)(C)C5)C(=O)N4C3)cc(OC(C)C)nc2c1C` [Compound 2011, (2R,6S,12Z,13aS,14aR,16aS)-N-(cyclopropylsulfonyl)-6-{[(3,3-dimethylazetidin-1-yl)carbonyl]amino}-2-{[7-methoxy-8-methyl-2-(propan-2-yloxy)quinolin-4-yl]oxy}-5,16-dioxo-1,2,3,6,7,8,9,10,11,13a,14,15,16,16a-tetradecahydrocyclopropa[e]pyrrolo[1,2-a][1,4]diazacyclopentadecine-14a(5H)-carboxamide], the EC50 came to 3.9 nM in assay [1] and 6.1 nM in assay [2].
In the case of `COc1ccc2c(O[C@@H]3C[C@H]4C(=O)N[C@]5(C(=O)NS(=O)(=O)C6(C)CC6)C[C@H]5/C=C\CCCCC[C@H](NC(=O)N(C)C)C(=O)N4C3)cc(OC3CC3)nc2c1C` [Compound 2012, (2R,6S,12Z,13aS,14aR,16aS)-2-{[2-(cyclopropyloxy)-7-methoxy-8-methylquinolin-4-yl]oxy}-6-[(dimethylcarbamoyl)amino]-N-[(1-methylcyclopropyl)sulfonyl]-5,16-dioxo-1,2,3,6,7,8,9,10,11,13a,14,15,16,16a-tetradecahydrocyclopropa[e]pyrrolo[1,2-a][1,4]diazacyclopentadecine-14a(5H)-carboxamide], the figures for the EC50 in assay [1] and in assay [2] were 1.8 nM and 9.9 nM, respectively.
For `COc1ccc2c(O[C@@H]3C[C@H]4C(=O)N[C@]5(C(=O)NS(=O)(=O)C6(C)CC6)C[C@H]5/C=C\CCCCC[C@H](NC(=O)N5CC(C)(O)C5)C(=O)N4C3)cc(OC(C)C)nc2c1C` [Compound 2013, (2R,6S,12Z,13aS,14aR,16aS)-6-{[(3-hydroxy-3-methylazetidin-1-yl)carbonyl]amino}-2-{[7-methoxy-8-methyl-2-(propan-2-yloxy)quinolin-4-yl]oxy}-N-[(1-methylcyclopropyl)sulfonyl]-5,16-dioxo-1,2,3,6,7,8,9,10,11,13a,14,15,16,16a-tetradecahydrocyclopropa[e]pyrrolo[1,2-a][1,4]diazacyclopentadecine-14a(5H)-carboxamide], the 50% effective concentration (EC50) in assay [1] is 3.3 nM; in assay [2], 6.5 nM.
Turning to `CCOc1cc(O[C@@H]2C[C@H]3C(=O)N[C@]4(C(=O)NS(=O)(=O)C5(C)CC5)C[C@H]4/C=C\CCCCC[C@H](NC(=O)N4CC(F)C4)C(=O)N3C2)c2ccc(OC)c(C)c2n1` [Compound 2014, (2R,6S,12Z,13aS,14aR,16aS)-2-[(2-ethoxy-7-methoxy-8-methylquinolin-4-yl)oxy]-6-{[(3-fluoroazetidin-1-yl)carbonyl]amino}-N-[(1-methylcyclopropyl)sulfonyl]-5,16-dioxo-1,2,3,6,7,8,9,10,11,13a,14,15,16,16a-tetradecahydrocyclopropa[e]pyrrolo[1,2-a][1,4]diazacyclopentadecine-14a(5H)-carboxamide], the EC50 was found to be 0.53 nM in assay [1] and 8.4 nM in assay [2].
`CCOc1cc(O[C@@H]2C[C@H]3C(=O)N[C@]4(C(=O)NS(=O)(=O)C5(C)CC5)C[C@H]4/C=C\CCCCC[C@H](NC(=O)N4CCC4)C(=O)N3C2)c2ccc(OC)c(C)c2n1` [Compound 2015, (2R,6S,12Z,13aS,14aR,16aS)-6-[(azetidin-1-ylcarbonyl)amino]-2-[(2-ethoxy-7-methoxy-8-methylquinolin-4-yl)oxy]-N-[(1-methylcyclopropyl)sulfonyl]-5,16-dioxo-1,2,3,6,7,8,9,10,11,13a,14,15,16,16a-tetradecahydrocyclopropa[e]pyrrolo[1,2-a][1,4]diazacyclopentadecine-14a(5H)-carboxamide]: the EC50 in assay [1] came to 0.67 nM; in assay [2], 5.4 nM.
